From paper PMC5540152 (Cell reports, 2017)
Ends that are not written are not given here.

Assays:
[1] = molecular target: T1, CaMKII (Homo sapiens, UniProt Q9UQM7); assay: Kinetics of CaMKII inhibition; type: biochemical
[2] = molecular target: T1, CaMKII; details: stimulated CaMKII activity; ref Coultrap and Bayer, 2011; cited from earlier work

T1 sequence (Q9UQM7 whole entry): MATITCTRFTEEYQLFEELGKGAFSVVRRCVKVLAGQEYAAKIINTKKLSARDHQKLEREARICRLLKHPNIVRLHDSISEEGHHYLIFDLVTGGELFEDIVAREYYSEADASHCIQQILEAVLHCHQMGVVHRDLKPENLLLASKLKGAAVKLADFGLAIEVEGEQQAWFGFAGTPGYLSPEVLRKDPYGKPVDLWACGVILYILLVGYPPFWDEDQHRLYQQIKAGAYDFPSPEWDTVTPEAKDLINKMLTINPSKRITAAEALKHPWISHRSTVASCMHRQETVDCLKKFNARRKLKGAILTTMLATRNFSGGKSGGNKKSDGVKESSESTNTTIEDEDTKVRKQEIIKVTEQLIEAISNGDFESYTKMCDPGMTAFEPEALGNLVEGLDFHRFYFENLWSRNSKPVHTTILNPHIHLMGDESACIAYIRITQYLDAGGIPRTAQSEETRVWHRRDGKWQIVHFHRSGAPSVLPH

KRAPKLGQIGRQKAVDIED [CN19o]
α-factor compared to the parent compounds ([1]; vs CN19 and CN19a2v): minimal effect on the α-factor
Ki compared to the parent compounds ([1]; vs parent compounds CN19 and CN19a2v): dramatically improved
enhancement of potency [2]: > 250 fold
enhancement of selectivity [2]: > 250 fold
